These results are taken from patent US20110039762A1, “TARGETED ANTIMICROBIAL MOIETIES” (C3 JIAN, INC., priority 2009, published 2011).

Entries after “also recorded” stand apart in the source; their conditions may differ. Bridge positions count the residues as written; N and C are the ends. Square brackets hold non-standard residues; d marks the D form. Ends that are not written are not given here. dOrn = NCCC[C@@H](N)C(=O)O; Orn = NCCC[C@H](N)C(=O)O

One experiment deals with microorganisms (e.g., bacteria, yeasts, fungi). Kind of experiment: Targeting peptide binding to target microorganisms (Table 3). The following applies: microorganism the targeting peptide binds; binding in aqueous buffers varied by peptide solubility, preferably 1x PBS.
On to “1T-15 (DVILRVEAQ; Peptide with targeting and/or antimicrobial activity) [Peptide 1T-15]”, for which the “Target(s)” value is on record as “S. mutans”. On to “1T-50 (HSDEPIPNILFKSDSVH; Peptide with targeting and/or antimicrobial activity) [Peptide 1T-50]”, for which the “Target(s)” value is given as “P. aeruginosa”. For “1T-112 (SDNDGKLILGTSQ; Peptide with targeting and/or antimicrobial activity) [Peptide 1T-112]”, the “Target(s)” value was “S. gordonii”. Regarding “1T-250 (LVQGDTILIENHVGTPVKDDGKDCLIIREADVLAVVND; Peptide with targeting and/or antimicrobial activity) [Peptide 1T-250]”, the “Target(s)” value is reported as “S. mitis; also recorded: S. mutans; also recorded: S. oralis”.

For “1T-272 (QLAPIDKQLKAVKKIAFYESESTAAKAVTVA; Peptide with targeting and/or antimicrobial activity) [Peptide 1T-272]”, the “Target(s)” value is “F. nucleatum; also recorded: S. mutans; also recorded: S. oralis; also recorded: S. sanguinis”. Still for that read-out and setting: next, “1T-64 (QTVHHIHMHVLGQRQMHWPPG; Peptide with targeting and/or antimicrobial activity) [Peptide 1T-64]”: “S. aureus; also recorded: S. epidermidis; also recorded: C. jeikeium; also recorded: C. xerosis; also recorded: C. striatum; also recorded: P. aeruginosa”. As to “1T-201 (KRKHENVIVAEEMRVIKN; Peptide with targeting and/or antimicrobial activity) [Peptide 1T-201]”, the “Target(s)” value is recorded as “S. sanguinis”. The same measure, in the same setting: next, “1T-87 (EAVGQDLVDAHHP; Peptide with targeting and/or antimicrobial activity) [Peptide 1T-87]”: “S. mitis; also recorded: S. mutans; also recorded: S. oralis”; “1T-22 (VPLDDGTRRPEVARNRDKDRED; Peptide with targeting and/or antimicrobial activity) [Peptide 1T-22]”: “S. epidermidis; also recorded: P. aeruginosa”.

For “1T-56 (LALIGAGIWMIRKG; Peptide with targeting and/or antimicrobial activity) [Peptide 1T-56]”, the “Target(s)” value is reported as “C. xerosis; also recorded: P. aeruginosa”. Take “Py Pf 12 ([dS]KG[Orn][dS]SGK[dOrn]ES; lactam 8-C; not fully specified)”: the “Target(s)” value is given as “P. fluorescens”. The same measure, in the same setting: next, “1T-40 (QRVSLWSEVEHEFR; Peptide with targeting and/or antimicrobial activity) [Peptide 1T-40]”: “S. mutans; also recorded: P. aeruginosa”; “1T-71 (KIDTNQWPPNKEG; Peptide with targeting and/or antimicrobial activity) [Peptide 1T-71]”: “P. aeruginosa”; “1T-108 (WGPLGPERPLW; Peptide with targeting and/or antimicrobial activity) [Peptide 1T-108]”: “S. gordonii; also recorded: S. mitis; also recorded: S. mutans; also recorded: S. oralis; also recorded: S. salivarious; also recorded: S. sanguinis”.

The experiment is the same for the next values; noted with them: microorganism(s) the targeting peptide binds; binding in aqueous buffers depending on peptide solubility, preferably 1x PBS.
For “PF-300 (VKDVLLELFNKIIGA; Peptide with targeting and/or antimicrobial activity)”, the “Target(s)” value is “B. subtilis; also recorded: C. difficile”. Still for that read-out and setting: the result for “PF-311 (IDAVTKKKTTCMIRAPTKIPIAHTDN; Peptide with targeting and/or antimicrobial activity)” reads “C. difficile”. Still for that read-out and setting: the result for “PF-184 (LIADRHIRA; Peptide with targeting and/or antimicrobial activity)” reads “S. epidermidis and M. luteus and E. coli and P. aeruginosa and C. albicans and MRSA and C. jeikeium”; that for “PF-309 (GIPGMTAAPAEENEQEENADEE; Peptide with targeting and/or antimicrobial activity)”, “S. mutans; also recorded: E. coli”. As for “PF-159 (TMAFVEKAQLRVPVGDDLPV; Peptide with targeting and/or antimicrobial activity)”, the “Target(s)” value is reported as “S. epidermidis”.

Consider “PF-207 (AAGCRDLGSLSSLVTNPS; Peptide with targeting and/or antimicrobial activity)”, for which the “Target(s)” value is reported as “M. luteus; also recorded: C. jeikeium”.

With “PF-231 (AVRDFKKSVREEDEAASLNSPRTIDAQVKTSESTSVKS; Peptide with targeting and/or antimicrobial activity)”, the “Target(s)” value is “S. mutans”. In the case of “PF-172 (LTGVRRPWRAPWAGTSGWALR; Peptide with targeting and/or antimicrobial activity)”, the “Target(s)” value was “S. epidermidis and M. luteus and E. coli and P. aeruginosa and MRSA and E. faecalis and C. jejuni”. Regarding “PF-182 (LPATRDKTRVPASVAGAP; Peptide with targeting and/or antimicrobial activity)”, the “Target(s)” value was “S. epidermidis; also recorded: M. luteus; also recorded: E. coli; also recorded: E. faecalis; also recorded: C. jeikeium”.

In the case of “PF-150 (EIQAKGTG; Peptide with targeting and/or antimicrobial activity)”, the “Target(s)” value is “S. epidermidis and MRSA”. On the same count and under the same terms, the result for “PF-213 (MTTGVDFIIEKV; Peptide with targeting and/or antimicrobial activity)” reads “S. epidermidis”.

The same experiment, now with this note: microorganism(s) the targeting peptide binds; peptide binding conducted in aqueous buffers varied by peptide solubility, preferably 1x PBS.
“PF-441 (TQVHKMARGIDPGPANGIYR; Peptide with targeting and/or antimicrobial activity)”: the “Target(s)” value is on record as “C. jeikeium”.

The experiment is the same for the next values; noted with them: peptide binding in aqueous buffers varied by peptide solubility; preferably 1x PBS.
As for “PF-678 (RDRRWTRRDMYDWLESARV; Peptide with targeting and/or antimicrobial activity)”, the “Target(s) (microorganisms bound by the targeting peptide)” value is recorded as “Mycobacteria spp”. For “PF-674 (DGCDSEPALTYR; Peptide with targeting and/or antimicrobial activity)”, the “Target(s) (microorganisms bound by the targeting peptide)” value is listed as “S. mutans; also recorded: E. coli”. Still for that read-out and setting: the result for “PF-798 (ALHSKGIKVMADWVPDQMYA; Peptide with targeting and/or antimicrobial activity)” reads “S. mutans”; that for “PF-C034 (HPMPITVRSRKPGPLTAPSEH; Peptide with targeting and/or antimicrobial activity)”, “S. mutans; also recorded: E. coli”; that for “PF-S018 (GMPQIPRLRI; Peptide with targeting and/or antimicrobial activity)”, “S. epidermidis and M. luteus and C. albicans and MRSA and E. faecalis and C. jeikeium and C. jejuni”. On the same count and under the same terms, next, “PF-C045 (FREGMGWPLSNEGSPTAPLPKHRNQV; Peptide with targeting and/or antimicrobial activity)”: “A. naeslundii; also recorded: T. denticola”; “PF-C093 (EKLGTMV; Peptide with targeting and/or antimicrobial activity)”: “A. naeslundii; also recorded: F. nucleatum; also recorded: S. mutans”; “PF-787 (MTERQRRALLKQHPEVVSWSDYLEKRKRRTGTAG; Peptide with targeting and/or antimicrobial activity)”: “Mycobacteria spp”.
